The values that follow come from patent publication US10513511B2, “Aqueous suspension formulation comprising 4-(4-(4-(((3R,5R)-5-((1H-1,2,4-triazol-1-yl)methyl)-5-(2,4-difluoro-phenyl)tetrahydrofuran-3-yl)methoxy)-3-methylphenyl) or a pharmaceutically acceptable salt thereof” (PULMOCIDE LIMITED, priority 2015, dated 2019).

Structures are written as SMILES. In brackets after ≈: the same amount, converted by molar mass. Read-outs that look alike come from different tables or passages of the source.

What all share (type): cell-based
Series [1] deals with Aspergillus fumigatus NCPF2010. As to the kind of experiment: Planktonic fungus growth: broth microdilution assay (NCPF2010). As to the method:
(§1) This assay was conducted using a modified method published by EUCAST (Rodriguez-Tudela, et al., 2008). Spores of Aspergillus fumigatus (NCPF2010, NCPF7010 [methionine 220 mutation], NCPF7099 [Glycine G54 mutation]) from Public Health England, Wiltshire; TR34/L98H mutants from St Louis Hospital, Paris, France; TR46/Y121F/T289A mutants from University of Delhi, Delhi, India) were cultured in Sabouraud dextrose agar for 3 days. A stock spore suspension was prepared from a Sabouraud dextrose agar culture by washing with PBS-tween (10 mL; phosphate buffered saline containing 0.05% Tween-20, 100 U/mL penicillin and 100 U/mL streptomycin). The spore count was assessed using a Neubauer haemocytometer and then adjusted to 10^6 spores/mL with PBS. A working suspension of spores (2×10^5 spores/mL) was prepared in filter sterilised, BSA MOPS RPMI-1640 (50 mL; RPMI-1640 containing 2 mM L-glutamine, 0.5% BSA, 2% glucose, 0.165 M MOPS, buffered to pH 7 with NaOH).
(§2) For the assay, BSA MOPS RPMI-1640 (50 μL/well) was added throughout the 384-well plate (Catalogue number 353962, BD Falcon, Oxford, UK) first. Test compounds (0.5 μL DMSO solution) were then added in quadruplicate using an Integra VIAFLO 96 (Integra, Zizers, Switzerland), and mixed well using a plate mixer. Subsequently 50 μL of the working spore suspension prepared above was added to all wells except non-spore control wells. For non-spore control wells, BSA MOPS-RPMI solution (50 μL/well) was added instead. The plate was covered with a plastic lid, and incubated (35° C. with ambient air) for 48 hr. The OD of each well at 530 nm was determined using a multi-scanner (Clariostar: BMG, Buckinghamshire, UK). The percentage inhibition for each well was calculated and the MIC50, MIC75 and MIC90 values were calculated from the concentration-response curve generated for each test compound.

The test system of series [2] is Aspergillus fumigatus L98H (TR34/L98H). As to the kind of experiment: Planktonic fungus growth: broth microdilution assay (L98H). Conditions: for MIC: Aspergillus fumigatus, read-out: MIC75 Values against Aspergillus fumigatus isolate L98H. As to the method: as §1, §2
Series [3] relates to Aspergillus fumigatus TR46 (TR46/Y121F/T289A). As to the kind of experiment: Planktonic fungus growth: broth microdilution assay (TR46). Conditions: for MIC: Aspergillus fumigatus, read-out: MIC75 Values against Aspergillus fumigatus isolate TR46. On the procedure:
as §1, §2

Series [4] has as its system Aspergillus fumigatus NCPF7099. Briefly: Planktonic fungus growth: broth microdilution assay (NCPF7099). As to the method:
as §1, §2

The test system of series [5] is Aspergillus fumigatus NCPF7100. Briefly: Planktonic fungus growth: broth microdilution assay (NCPF7100). Conditions: for MIC: Aspergillus fumigatus, NCPF7100, read-out: MIC75 Values against Aspergillus fumigatus isolate NCPF7100.
In the next series the test system is BEAS2B cells. Briefly: Cell viability: resazurin assay. Conditions: for effect on the viability of BEAS2B bronchial epithelial cells: at concentrations indicated in Table 4. On the procedure: (§3) BEAS2B cells were seeded in 384-well plates (100 μL; 3000/well/; BD Falcon, Catalogue No 353962) in RPMI-LHC8 (RPMI-1640 and LHC8 media combined in equal proportions) one day before experimentation. For cell-free control wells, RPMI-LHC8 (100 μL) was added. Test compounds (0.5 μL of a DMSO solution) were added to give a final DMSO concentration of 0.5% using an Integra VIAFLO 96 (Integra, Zizers, Switzerland). BEAS2B cells were incubated with each test compound for 1 day (37° C./5% CO2 in RPMI-LHC8). After addition of resazurin stock solution (5 μL, 0.04%) the plates were incubated for a further 4 hr (37° C./5% CO2). The fluorescence of each well at 545 nm (excitation) and 590 nm (emission) was determined using a multi-scanner (Clariostar: BMG Labtech). The percentage loss of cell viability was calculated for each well relative to vehicle (0.5% DMSO) treatment. Where appropriate, a CC50 value was calculated from the concentration-response curve generated from the concentration-response curve for each test compound.

The subject of series [6] is Aspergillus fumigatus (azole resistant strain: TR34/L98H). As to the kind of experiment: Aspergillus fumigatus infection of human alveoli bilayers (transwells), azole resistant strain. Conditions: TR34-L98H, Compound 0.3 μg/mL upper chamber, posaconazole 0.1 μg/mL lower chamber, combination of both. On the procedure: In vitro models of human alveoli, consisting of a bilayer of human alveolar epithelial cells and endothelial cells, were prepared as previously described (Hope et al., 2007). This system allows administration of a test compound to the upper (“air” space) and/or lower (“systemic” space) compartments. This flexibility has been exploited to explore the effects of combination treatment by dosing Compound (I) to the upper chamber and posaconazole or other anti-fungal agents to the lower chamber. Primary human pulmonary artery endothelial cells (HPAEC) were harvested and diluted to 10^6 cells/mL in EGM-2 media (Lonza, Basel, Switzerland). Transwells were inverted and the cell suspension (100 μL/well) applied to the base of each transwell. The inverted transwells were incubated at RT within a flow hood for 2 hr after which they were turned upright. EGM-2 media was added to the lower (700 μL/well) and upper (100 μL/well) compartments and the transwells were incubated for 48 hr (37° C., 5% CO2). The EGM-2 media in the lower compartment was then replaced with fresh EGM-2 media. A549 cells were harvested and diluted to 5×10^5 cells/mL in 10% EBM, then added to the upper compartment (100 μL/well) of all transwells and the plates incubated for 72 hr (37° C., 5% CO2). Conidia of itraconazole sensitive Aspergillus fumigatus s (NCPF2010) and itraconazole resistant (TR34-L98H) strains were cultured separately in Sabouraud dextrose agar for 3 days. A stock conidia suspension of either strain was prepared from a Sabouraud dextrose agar culture by washing with PBS-tween (10 mL; PBS containing 0.05% Tween-20, 100 U/mL Penicillin and 100 U/mL Streptomycin). The conidia count was assessed using a Neubauer haemocytometer and adjusted to 10^6 conidia/mL with PBS. A working stock of conidia was prepared in EBM (10^5 conidia/mL) immediately prior to use.
Test and reference compounds (or neat DMSO as the vehicle) were added to the appropriate wells of 24-well plates (3 μL/well containing 600 μL of 2% FBS EBM) for lower compartment treatment and to 96-well plates (1 μL/well containing 200 μL of 2% FBS EBM) for the treatment of the upper compartment, to provide a final DMSO concentration of 0.5%. The media in the upper compartment was aspirated and that containing the appropriate test and reference compounds, or vehicle, were added (100 μL/well). Transwells were then transferred into the 24-well plate containing the test and reference compounds or DMSO vehicle. After incubation for 1 hr (35° C., 5% CO2) the conidia suspension (10 μL/well) was added to the upper compartment of each transwell. Plates were then incubated for 24 hr (35° C., 5% CO2). Supernatants from each compartment (5 μL/compartment) were collected and stored (−20° C.). Media was replaced daily after collection of the supernatants and all wells were treated with test and reference compounds or with DMSO, as described above, for 3 days. Samples continued to be collected until fungal growth was visible by eye in all transwells. The levels of GM in the supernatant in lower compartment were then measured by ELISA (BioRad, CA, USA) as an index of Aspergillus fumigatus invasion.

A short description of series [7]: Cell viability: resazurin assay. Conditions: human, BEAS2B cells; 1 day incubation, resazurin; n = 3. On the procedure: as §3
Where [8] appears, read: broth microdilution assay, n = 2-3.
Where [9] appears, read: Aspergillus fumigatus, NCPF2010, n = 2-3, read-out: MIC75 Values against Aspergillus fumigatus isolate NCPF2010.
The mark [10] stands for this setting: Aspergillus fumigatus, NCPF7099, n = 2-3, read-out: MIC75 Values against Aspergillus fumigatus isolate NCPF7099.

For `C[C@@H]1[C@H](O)[C@@H](C)/C=C/C=C/C=C/C=C/C=C/C=C/C=C/[C@H](O[C@@H]2O[C@H](C)[C@@H](O)[C@H](N)[C@@H]2O)C[C@@H]2O[C@](O)(C[C@@H](O)C[C@@H](O)[C@H](O)CC[C@@H](O)C[C@@H](O)CC(=O)O[C@H]1C)C[C@H](O)[C@H]2C(=O)O` [Amphotericin B, reference compound], the MIC in series [1] (n = 2-3, read-out: MIC75 Values against Aspergillus fumigatus isolate NCPF2010) was determined as 0.407 µM (≈ 0.376 µg/mL); in series [4] (n = 2-3, read-out: MIC75 Values against Aspergillus fumigatus isolate NCPF7099), 0.248 µM (≈ 0.229 µg/mL). In addition, the “MIC75 Values against Aspergillus fumigatus isolate L98H” value in series [2] (setting [8]) worked out at 0.195 µM (≈ 0.18 µg/mL). Further, the “MIC75 Values against Aspergillus fumigatus isolate TR46” value in series [3] (setting [8]) came to 0.187 µM (≈ 0.173 µg/mL). The “MIC75 Values against Aspergillus fumigatus isolate NCPF7100” value in series [5] (setting [8]) turned out to be 0.523 µM (≈ 0.483 µg/mL). Moreover, in the series on BEAS2B cells (1 day incubation, resazurin, n = 3), the CC50 worked out at 2.34 µM.

As for `Cc1cc(N2CCN(c3ccc(C(=O)NC4CCCCC4O)cc3)CC2)ccc1OC[C@@H]1CO[C@@](Cn2cncn2)(c2ccc(F)cc2F)C1` (stereo partly drawn) [Compound (I), 4-(4-(4-(((3R,5R)-5-((1H-1,2,4-triazol-1-yl)methyl)-5-(2,4-difluorophenyl)tetrahydrofuran-3-yl)methoxy)-3-methylphenyl)piperazin-1-yl)-N-(2-hydroxycyclohexyl)benzamide], the “GM Levels in the Lower Chamber, OD value” came out at 0 OD in series [6] (Day 0), 0.016 OD in series [6] (Day 1), 0.84 OD in series [6] (Day 2) and 1.01 OD in series [6] (Day 3). Further, the “GM Levels in the Lower Chamber, % inhibition vs. vehicle control” value in series [6] (Day 1) is 98%; in series [6] (Day 2) it was 24%; in series [6] (Day 3), 4.6%. The “DFB50: Days taken to reach a fungal burden of 50% of control” value in series [6] was determined as 1.53 days.

For the molecule `Cc1cc(N2CCN(c3ccc(C(=O)N[C@@H]4CCCC[C@@H]4O)cc3)CC2)ccc1OC[C@@H]1CO[C@@](Cn2cncn2)(c2ccc(F)cc2F)C1` [Compound (Id), 4-(4-(4-(((3R,5R)-5-((1H-1,2,4-triazol-1-yl)methyl)-5-(2,4-difluorophenyl)tetrahydrofuran-3-yl)methoxy)-3-methylphenyl)piperazin-1-yl)-N-((1R,2S)-2-hydroxycyclohexyl)benzamide], the MIC in series [1] (setting [9]) was 0.00851 µM (≈ 0.00584 µg/mL); in series [2] it was 0.07 µM (≈ 0.0481 µg/mL); in series [3], 0.316 µM (≈ 0.217 µg/mL); in series [4] (setting [10]) it was 0.0117 µM (≈ 0.00804 µg/mL); in series [5] it was 0.0252 µM (≈ 0.0173 µg/mL). Further, the CC50 at 1 day in series [7] is above 14.6 µM. Also, in the series with BEAS2B cells, the “effect on the viability of BEAS2B bronchial epithelial cells” value was “no or little effect”.

For the molecule `Cc1cc(N2CCN(c3ccc(C(=O)N[C@@H]4CCCC[C@H]4O)cc3)CC2)ccc1OC[C@@H]1CO[C@@](Cn2cncn2)(c2ccc(F)cc2F)C1` [Compound (Ib), 4-(4-(4-(((3R,5R)-5-((1H-1,2,4-triazol-1-yl)methyl)-5-(2,4-difluorophenyl)tetrahydrofuran-3-yl)methoxy)-3-methylphenyl)piperazin-1-yl)-N-((1R,2R)-2-hydroxycyclohexyl)benzamide], the MIC in series [1] (setting [9]) was found to be 0.00802 µM (≈ 0.00551 µg/mL); in series [2] it was 0.303 µM (≈ 0.208 µg/mL); in series [3], 0.334 µM (≈ 0.229 µg/mL); in series [4] (setting [10]) it was 0.0862 µM (≈ 0.0592 µg/mL); in series [5], 0.0873 µM (≈ 0.06 µg/mL). Further, the CC50 at 1 day in series [7] is above 14.6 µM. The “effect on the viability of BEAS2B bronchial epithelial cells” value in the series with BEAS2B cells is given as “no or little effect”.
